From BindingDB's records for doi:10.7270/Q2DF6PMF (Nmmlsc, 2007)

Molecular target: T1, N-formyl peptide receptor 2 (Homo sapiens, UniProt P25090)
T1 sequence (P25090 whole entry): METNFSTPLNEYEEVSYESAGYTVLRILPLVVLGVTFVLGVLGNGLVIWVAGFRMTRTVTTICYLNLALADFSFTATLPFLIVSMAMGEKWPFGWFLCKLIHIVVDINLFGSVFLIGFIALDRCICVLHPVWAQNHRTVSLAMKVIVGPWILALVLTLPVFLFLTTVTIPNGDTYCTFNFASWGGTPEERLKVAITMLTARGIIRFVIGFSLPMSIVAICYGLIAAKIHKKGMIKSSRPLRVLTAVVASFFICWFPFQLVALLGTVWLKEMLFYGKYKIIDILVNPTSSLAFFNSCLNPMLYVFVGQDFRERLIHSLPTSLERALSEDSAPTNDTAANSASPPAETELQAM
Assay: concentration-dependent FPRL1 ligand displacement – cell-based, FPR counter-screen, fluorescent ligand, dose response (AID 520)
Settings: not given

Row | Compound | IC50 [µM] | Ki [µM]
1 | COc1cccc(C2C(C(=O)c3cc4ccccc4o3)C(=O)C(=O)N2c2cc(C)on2)c1OC (stereo unspecified) [3-(1-benzofuran-2-carbonyl)-2-(2,3-dimethoxyphenyl)-4-hydroxy-1-(5-methyl-1,2-oxazol-3-yl)-2H-pyrrol-5-one] | > 66.7 | > 40.3
2 | COc1ccc(OC)c(C2C(C(=O)c3cc4ccccc4o3)C(=O)C(=O)N2c2cc(C)on2)c1 (stereo unspecified) [3-(1-benzofuran-2-carbonyl)-2-(2,5-dimethoxyphenyl)-4-hydroxy-1-(5-methyl-1,2-oxazol-3-yl)-2H-pyrrol-5-one] | > 66.7 | > 40.3
3 | O=C1C(=O)N(CCCN2CCOCC2)C(c2ccccn2)C1C(=O)c1cc2ccccc2o1 (stereo unspecified) [3-(1-benzofuran-2-carbonyl)-4-hydroxy-1-(3-morpholin-4-ylpropyl)-2-pyridin-2-yl-2H-pyrrol-5-one] | > 66.7 | > 40.3
4 | Cc1ccc(C2C(C(=O)c3sc(C)nc3C)C(=O)C(=O)N2CCN2CCOCC2)o1 (stereo unspecified) [3-(2,4-dimethyl-1,3-thiazole-5-carbonyl)-4-hydroxy-2-(5-methylfuran-2-yl)-1-(2-morpholin-4-ylethyl)-2H-pyrrol-5-one] | > 66.7 | > 40.3
5 | Cc1csc(NC(=O)CCn2c(=O)oc3ccccc32)n1 [3-(2-keto-1,3-benzoxazol-3-yl)-N-(4-methylthiazol-2-yl)propionamide] | > 66.7 | –
6 | Cc1oc2cc(O)cc(O)c2c(=O)c1-c1ccc2c(c1)OCCCO2 [3-(3,4-dihydro-2H-1,5-benzodioxepin-7-yl)-2-methyl-5,7-bis(oxidanyl)chromen-4-one] | > 66.7 | –
7 | COc1ccc(-c2c(C)oc3c(CN4CCN(CCO)CC4)c(O)ccc3c2=O)cc1OC [3-(3,4-dimethoxyphenyl)-7-hydroxy-8-[[4-(2-hydroxyethyl)-1-piperazinyl]methyl]-2-methyl-1-benzopyran-4-one] | > 66.7 | –
8 | CCC(CCC(=O)Nc1cccc(C(=O)O)c1)C(=O)O (stereo unspecified) [3-(4-carboxyhexanoylamino)benzoic acid] | > 66.7 | –
9 | Fc1ccc(-c2nnc3ccc(N4CCCC4)nn23)cc1 [3-(4-fluorophenyl)-6-(1-pyrrolidinyl)-[1,2,4]triazolo[4,3-b]pyridazine] | > 66.7 | –
10 | COc1ccc(-c2nc(-c3ccc(Br)o3)no2)cc1OC [3-(5-bromanylfuran-2-yl)-5-(3,4-dimethoxyphenyl)-1,2,4-oxadiazole] | > 66.7 | –
11 | CCCOc1ccc(C2C(C(=O)c3ccc(C)o3)C(=O)C(=O)N2Cc2cccnc2)cc1 (stereo unspecified) [3-(5-methylfuran-2-yl)carbonyl-4-oxidanyl-2-(4-propoxyphenyl)-1-(pyridin-3-ylmethyl)-2H-pyrrol-5-one] | > 66.7 | > 40.3
12 | COCCN1C(=O)C(=O)C(C(=O)c2ccco2)C1c1cccc(Oc2ccccc2)c1 (stereo unspecified) [3-(furan-2-carbonyl)-4-hydroxy-1-(2-methoxyethyl)-2-(3-phenoxyphenyl)-2H-pyrrol-5-one] | > 66.7 | > 40.3
13 | C=CCOc1cccc(C2C(C(=O)c3ccco3)C(=O)C(=O)N2CCN2CCOCC2)c1 (stereo unspecified) [3-(furan-2-carbonyl)-4-hydroxy-1-(2-morpholin-4-ylethyl)-2-(3-prop-2-enoxyphenyl)-2H-pyrrol-5-one] | > 66.7 | > 40.3
14 | O=C1C(=O)N(CCc2ccccc2)C(c2cccnc2)C1C(=O)c1ccco1 (stereo unspecified) [3-(furan-2-carbonyl)-4-hydroxy-1-(2-phenylethyl)-2-pyridin-3-yl-2H-pyrrol-5-one] | > 66.7 | > 40.3
15 | CCCOc1ccc(C2C(C(=O)c3ccco3)C(=O)C(=O)N2CCCn2ccnc2)cc1 (stereo unspecified) [3-(furan-2-carbonyl)-4-hydroxy-1-(3-imidazol-1-ylpropyl)-2-(4-propoxyphenyl)-2H-pyrrol-5-one] | > 66.7 | > 40.3

Now from value to compound:

Row | IC50 [µM] | Ki [µM] | Compound
16 | > 66.7 | – | CCOC(=O)c1c(NC(=O)c2cc(C3CC3)on2)sc2c1CCCC2 [2-[(5-cyclopropylisoxazole-3-carbonyl)amino]-4,5,6,7-tetrahydrobenzothiophene-3-carboxylic acid ethyl ester]
17 | > 66.7 | – | COc1cccc(-c2nc(CS(=O)(=O)CC(=O)NCCC(C)C)c(C)o2)c1 [2-[[2-(3-methoxyphenyl)-5-methyl-1,3-oxazol-4-yl]methylsulfonyl]-N-(3-methylbutyl)acetamide]
18 | > 66.7 | – | CCCNC(=O)CS(=O)(=O)Cc1nc(-c2cccc(OC)c2)oc1C [2-[[2-(3-methoxyphenyl)-5-methyl-1,3-oxazol-4-yl]methylsulfonyl]-N-propyl-ethanamide]
19 | > 66.7 | – | COc1ccc(Cl)cc1-n1c(=S)sc2c(O)nc(SCC(=O)NCC3CCCO3)nc21 (stereo unspecified) [2-[[3-(5-chloranyl-2-methoxy-phenyl)-7-oxidanylidene-2-sulfanylidene-4H-[1,3]thiazolo[4,5-d]pyrimidin-5-yl]sulfanyl]-N-(oxolan-2-ylmethyl)ethanamide]
20 | > 66.7 | – | O=C(NCC1CCCO1)c1ccc(NC(=O)C2CCCCC2C(=O)O)cc1 (stereo unspecified) [2-[[4-(oxolan-2-ylmethylcarbamoyl)phenyl]carbamoyl]cyclohexane-1-carboxylic acid]
21 | 11.2 | – | CCOC(=O)CSc1nnc(CNC(=O)c2cc(OCC)c(OCC)c(OCC)c2)n1C [2-[[4-methyl-5-[[(3,4,5-triethoxybenzoyl)amino]methyl]-1,2,4-triazol-3-yl]thio]acetic acid ethyl ester]
22 | > 66.7 | – | CCc1cc2c(=O)c(-c3nc4ccccc4n3C)c(COCC(=O)O)oc2cc1OC(=O)C(C)(C)C [2-[[7-(2,2-dimethyl-1-oxopropoxy)-6-ethyl-3-(1-methyl-2-benzimidazolyl)-4-oxo-1-benzopyran-2-yl]methoxy]acetic acid]
23 | > 66.7 | – | CCOC(=O)c1c(NC(=O)C2C3CCC(O3)C2C(=O)O)sc(C)c1-c1ccc(C)cc1 (stereo unspecified) [2-[[[3-ethoxycarbonyl-5-methyl-4-(4-methylphenyl)-2-thiophenyl]amino]-oxomethyl]-7-oxabicyclo[2.2.1]heptane-3-carboxylic acid]
24 | > 66.7 | – | O=C(NCc1cccnc1)C1c2ccccc2C(=O)N1C1CCCCCC1 (stereo unspecified) [2-cycloheptyl-3-keto-N-(3-pyridylmethyl)isoindoline-1-carboxamide]
25 | > 66.7 | – | O=C(NCc1cccnc1)C1c2ccccc2C(=O)N1C1CCCCCCC1 (stereo unspecified) [2-cyclooctyl-3-keto-N-(3-pyridylmethyl)isoindoline-1-carboxamide]
26 | > 66.7 | – | CCC(CC)C(=O)Nc1c2cnn(-c3ccccc3)c2nc(=O)n1-c1ccccc1 [2-ethyl-N-(6-keto-1,5-diphenyl-pyrazolo[3,4-d]pyrimidin-4-yl)butyramide]
27 | > 66.7 | – | CCOc1ccccc1Oc1c(C)oc2cc(OC(=O)c3ccco3)ccc2c1=O [2-furancarboxylic acid [3-(2-ethoxyphenoxy)-2-methyl-4-oxo-1-benzopyran-7-yl] ester]
28 | > 66.7 | – | COc1ccccc1Oc1c(C)oc2cc(OC(=O)c3ccco3)ccc2c1=O [2-furancarboxylic acid [3-(2-methoxyphenoxy)-2-methyl-4-oxo-1-benzopyran-7-yl] ester]
29 | > 66.7 | – | CC(C)(C)CC(=O)Nc1ccc(Nc2ccccc2)cc1 [3,3-dimethyl-N-(4-phenylazanylphenyl)butanamide]
30 | > 66.7 | > 40.3 | CCCCc1c(O)n(-c2ccccc2)n(-c2ccccc2)c1=O [3,5-Dioxo-1,2-diphenyl-4-n-butylpyrazolidine]

Same assay, conditions: inactive by the depositor's call

Row | IC50 [µM] | Compound
31 | 18.5 | CCOc1cc(C(=O)NCc2nnc(SCC(=O)OC)n2C)cc(OCC)c1OCC [2-[[4-methyl-5-[[(3,4,5-triethoxybenzoyl)amino]methyl]-1,2,4-triazol-3-yl]thio]acetic acid methyl ester]
